Values joined by “and” are separate entries in the source; they are usually repeats but may differ in a detail not shown here. Identical values can stand only once.
How the values were obtained:
Test in all cases: Reaction Biology kinase activity inhibition
Type in all cases: biochemical
[1] = system: PKN1-TECR (Tex1Pex10); details: initial screening
Source text: (§1) The second screening was the Reaction Biology® (Malvern, PA) kinase activity inhibition tests, which screened for more than 600 protein kinases and lipid kinases, using miniaturized radioisotope-based assay platform with γ-^33P-ATP, followed by confirmation with IC50 kinase profiling service with 5 concentrations of test compound (i.e., DOH and DA) with curve fitting.

[2] = biological target: T1, MKK7 (MAPK9) (Homo sapiens, UniProt O14733); details: initial screening
T1 construct: purchased Reaction Biology
T1 sequence (O14733 2-419 limits assumed): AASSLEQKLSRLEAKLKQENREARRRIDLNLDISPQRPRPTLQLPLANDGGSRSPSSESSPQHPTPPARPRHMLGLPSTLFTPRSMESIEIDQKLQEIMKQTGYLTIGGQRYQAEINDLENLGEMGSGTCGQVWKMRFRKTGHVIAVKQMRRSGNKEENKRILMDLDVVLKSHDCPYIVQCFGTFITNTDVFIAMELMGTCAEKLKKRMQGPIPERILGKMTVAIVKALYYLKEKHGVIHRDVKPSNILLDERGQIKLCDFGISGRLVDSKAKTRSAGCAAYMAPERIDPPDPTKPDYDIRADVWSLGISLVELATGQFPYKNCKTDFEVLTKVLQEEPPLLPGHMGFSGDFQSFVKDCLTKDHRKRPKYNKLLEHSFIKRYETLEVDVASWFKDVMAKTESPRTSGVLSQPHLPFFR
Source text: as §1

[3] = biological target: T2, LKB1 (Homo sapiens, UniProt Q15831); details: activity screening, DOH at 50 μM
T2 construct: purchased Reaction Biology (Malvern, PA)
Source text: as §1

[4] = biological target: T3, CDK3/cyclin E (Homo sapiens, UniProt Q00526); details: initial screening
T3 construct: purchased Reaction Biology
T3 sequence (Q00526 whole entry): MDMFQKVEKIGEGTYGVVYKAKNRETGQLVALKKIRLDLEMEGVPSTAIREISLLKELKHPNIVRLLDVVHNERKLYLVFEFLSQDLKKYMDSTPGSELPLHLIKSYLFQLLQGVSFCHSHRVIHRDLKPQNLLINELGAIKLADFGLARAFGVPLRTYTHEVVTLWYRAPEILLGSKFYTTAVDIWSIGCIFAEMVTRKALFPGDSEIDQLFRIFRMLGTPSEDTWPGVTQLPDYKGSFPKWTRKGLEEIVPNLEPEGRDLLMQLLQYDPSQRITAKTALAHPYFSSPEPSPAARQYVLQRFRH
T3 sequence (P24864 whole entry partner): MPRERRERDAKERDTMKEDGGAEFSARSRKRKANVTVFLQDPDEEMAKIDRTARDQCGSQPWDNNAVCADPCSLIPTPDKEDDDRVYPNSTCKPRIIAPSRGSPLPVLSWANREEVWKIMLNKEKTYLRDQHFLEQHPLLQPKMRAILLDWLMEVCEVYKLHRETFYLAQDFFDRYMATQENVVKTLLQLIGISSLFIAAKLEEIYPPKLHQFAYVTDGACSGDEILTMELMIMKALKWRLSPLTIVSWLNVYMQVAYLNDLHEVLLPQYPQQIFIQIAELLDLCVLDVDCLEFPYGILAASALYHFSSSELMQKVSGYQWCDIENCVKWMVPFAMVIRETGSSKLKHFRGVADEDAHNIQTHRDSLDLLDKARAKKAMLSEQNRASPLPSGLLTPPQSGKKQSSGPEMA
Source text: as §1

[5] = biological target: T4, LRRK2 (G2019S) (Homo sapiens, UniProt Q5S007, G2019S); details: initial screening
T4 construct: purchased Reaction Biology
T4 sequence (Q5S007 whole entry G2019S): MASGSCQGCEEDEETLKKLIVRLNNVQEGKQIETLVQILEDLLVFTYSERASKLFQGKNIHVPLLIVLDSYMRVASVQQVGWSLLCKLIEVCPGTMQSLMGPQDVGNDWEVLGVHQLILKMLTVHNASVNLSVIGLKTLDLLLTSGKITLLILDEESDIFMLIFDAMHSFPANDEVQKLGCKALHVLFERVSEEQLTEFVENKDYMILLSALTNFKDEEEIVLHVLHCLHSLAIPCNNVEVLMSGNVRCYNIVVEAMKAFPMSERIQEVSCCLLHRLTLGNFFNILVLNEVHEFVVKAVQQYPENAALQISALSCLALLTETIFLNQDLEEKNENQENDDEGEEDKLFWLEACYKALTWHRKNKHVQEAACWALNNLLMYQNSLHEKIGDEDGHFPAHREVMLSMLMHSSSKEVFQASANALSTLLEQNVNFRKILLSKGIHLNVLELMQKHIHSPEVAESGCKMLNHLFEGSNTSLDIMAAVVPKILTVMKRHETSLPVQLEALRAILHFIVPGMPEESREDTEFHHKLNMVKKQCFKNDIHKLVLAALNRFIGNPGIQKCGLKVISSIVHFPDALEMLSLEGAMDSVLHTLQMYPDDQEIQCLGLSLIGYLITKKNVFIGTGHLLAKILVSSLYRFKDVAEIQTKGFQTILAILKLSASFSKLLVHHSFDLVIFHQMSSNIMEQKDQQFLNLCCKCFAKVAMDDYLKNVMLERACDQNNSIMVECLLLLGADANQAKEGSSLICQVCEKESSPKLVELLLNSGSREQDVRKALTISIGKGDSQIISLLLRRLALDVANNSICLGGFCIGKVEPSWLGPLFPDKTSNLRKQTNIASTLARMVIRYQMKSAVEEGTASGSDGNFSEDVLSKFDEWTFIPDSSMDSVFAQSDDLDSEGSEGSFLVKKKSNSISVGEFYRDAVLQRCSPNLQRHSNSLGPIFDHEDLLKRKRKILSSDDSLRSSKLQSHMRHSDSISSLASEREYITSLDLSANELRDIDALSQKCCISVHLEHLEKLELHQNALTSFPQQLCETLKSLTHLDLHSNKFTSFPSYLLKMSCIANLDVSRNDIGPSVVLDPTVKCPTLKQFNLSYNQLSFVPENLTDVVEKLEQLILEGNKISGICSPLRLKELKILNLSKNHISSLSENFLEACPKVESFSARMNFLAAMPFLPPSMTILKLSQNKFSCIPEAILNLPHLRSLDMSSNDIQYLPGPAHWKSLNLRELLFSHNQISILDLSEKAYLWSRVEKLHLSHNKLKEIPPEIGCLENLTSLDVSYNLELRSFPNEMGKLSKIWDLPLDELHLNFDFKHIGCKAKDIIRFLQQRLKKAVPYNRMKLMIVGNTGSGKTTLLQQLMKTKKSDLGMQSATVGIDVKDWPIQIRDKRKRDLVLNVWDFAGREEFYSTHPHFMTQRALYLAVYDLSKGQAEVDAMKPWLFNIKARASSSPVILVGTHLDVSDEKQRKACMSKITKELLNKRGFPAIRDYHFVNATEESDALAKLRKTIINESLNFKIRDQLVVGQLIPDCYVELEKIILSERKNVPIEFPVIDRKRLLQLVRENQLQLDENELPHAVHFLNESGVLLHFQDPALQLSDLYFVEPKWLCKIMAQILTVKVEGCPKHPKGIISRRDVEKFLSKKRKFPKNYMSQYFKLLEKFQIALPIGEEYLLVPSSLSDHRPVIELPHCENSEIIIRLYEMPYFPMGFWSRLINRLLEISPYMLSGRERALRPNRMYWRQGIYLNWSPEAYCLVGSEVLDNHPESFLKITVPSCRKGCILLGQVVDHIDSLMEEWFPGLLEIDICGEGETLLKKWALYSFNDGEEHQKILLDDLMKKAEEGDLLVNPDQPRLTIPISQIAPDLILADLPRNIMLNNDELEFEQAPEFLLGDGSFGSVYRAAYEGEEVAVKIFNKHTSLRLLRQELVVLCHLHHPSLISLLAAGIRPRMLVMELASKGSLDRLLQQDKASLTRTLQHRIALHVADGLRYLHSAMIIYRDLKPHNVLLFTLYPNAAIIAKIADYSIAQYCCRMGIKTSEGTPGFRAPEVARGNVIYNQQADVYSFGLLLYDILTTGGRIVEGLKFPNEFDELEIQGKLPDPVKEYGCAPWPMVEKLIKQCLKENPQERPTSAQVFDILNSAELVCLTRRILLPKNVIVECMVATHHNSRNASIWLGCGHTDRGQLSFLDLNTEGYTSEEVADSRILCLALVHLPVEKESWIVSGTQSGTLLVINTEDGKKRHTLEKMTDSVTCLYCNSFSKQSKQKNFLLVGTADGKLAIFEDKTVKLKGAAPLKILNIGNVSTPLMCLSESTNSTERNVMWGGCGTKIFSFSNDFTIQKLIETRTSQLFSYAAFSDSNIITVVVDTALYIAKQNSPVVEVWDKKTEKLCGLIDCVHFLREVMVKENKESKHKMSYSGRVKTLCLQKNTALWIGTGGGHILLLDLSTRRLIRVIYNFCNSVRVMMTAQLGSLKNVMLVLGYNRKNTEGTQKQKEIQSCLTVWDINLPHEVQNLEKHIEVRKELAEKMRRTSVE
Source text: as §1

[6] = biological target: T5, JNK2 (Homo sapiens, UniProt P45984); details: initial screening
T5 construct: purchased Reaction Biology
T5 sequence (P45984 whole entry): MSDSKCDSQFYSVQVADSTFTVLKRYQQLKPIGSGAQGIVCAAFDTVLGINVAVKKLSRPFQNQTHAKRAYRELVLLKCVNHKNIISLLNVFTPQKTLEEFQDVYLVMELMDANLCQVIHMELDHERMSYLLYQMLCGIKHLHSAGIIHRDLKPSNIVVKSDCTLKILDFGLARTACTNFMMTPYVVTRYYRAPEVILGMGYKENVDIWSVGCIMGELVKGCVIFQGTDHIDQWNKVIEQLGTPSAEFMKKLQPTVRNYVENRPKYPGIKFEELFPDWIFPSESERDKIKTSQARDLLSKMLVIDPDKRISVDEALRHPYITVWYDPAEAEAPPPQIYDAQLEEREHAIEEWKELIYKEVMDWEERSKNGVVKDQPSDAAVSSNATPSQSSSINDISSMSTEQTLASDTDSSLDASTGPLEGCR
Source text: as §1

[7] = biological target: T6, IRAK1 (Homo sapiens, UniProt P51617); details: initial screening
T6 construct: purchased Reaction Biology
T6 sequence (P51617 whole entry): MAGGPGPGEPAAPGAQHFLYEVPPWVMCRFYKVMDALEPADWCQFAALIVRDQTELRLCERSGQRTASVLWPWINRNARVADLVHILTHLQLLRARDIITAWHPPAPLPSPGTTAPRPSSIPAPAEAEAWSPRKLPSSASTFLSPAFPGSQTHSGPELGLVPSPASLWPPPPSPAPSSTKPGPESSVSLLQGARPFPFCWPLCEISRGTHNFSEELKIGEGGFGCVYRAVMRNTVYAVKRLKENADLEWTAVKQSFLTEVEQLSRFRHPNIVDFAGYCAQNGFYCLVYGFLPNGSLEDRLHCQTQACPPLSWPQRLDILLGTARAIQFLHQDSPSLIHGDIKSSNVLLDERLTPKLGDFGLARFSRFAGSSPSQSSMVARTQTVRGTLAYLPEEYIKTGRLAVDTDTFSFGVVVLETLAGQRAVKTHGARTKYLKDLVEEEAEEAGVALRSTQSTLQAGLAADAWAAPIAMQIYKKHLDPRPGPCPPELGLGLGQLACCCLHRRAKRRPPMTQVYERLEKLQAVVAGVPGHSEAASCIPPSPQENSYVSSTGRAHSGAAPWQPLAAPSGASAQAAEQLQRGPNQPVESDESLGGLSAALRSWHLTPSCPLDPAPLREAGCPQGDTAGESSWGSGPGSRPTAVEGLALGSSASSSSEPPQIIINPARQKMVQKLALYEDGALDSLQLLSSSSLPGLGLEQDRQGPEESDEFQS
Source text: as §1

[8] = biological target: T7, ARK5/NUAK1 (Homo sapiens, UniProt O60285); details: initial screening
T7 construct: purchased Reaction Biology
T7 sequence (O60285 1-661): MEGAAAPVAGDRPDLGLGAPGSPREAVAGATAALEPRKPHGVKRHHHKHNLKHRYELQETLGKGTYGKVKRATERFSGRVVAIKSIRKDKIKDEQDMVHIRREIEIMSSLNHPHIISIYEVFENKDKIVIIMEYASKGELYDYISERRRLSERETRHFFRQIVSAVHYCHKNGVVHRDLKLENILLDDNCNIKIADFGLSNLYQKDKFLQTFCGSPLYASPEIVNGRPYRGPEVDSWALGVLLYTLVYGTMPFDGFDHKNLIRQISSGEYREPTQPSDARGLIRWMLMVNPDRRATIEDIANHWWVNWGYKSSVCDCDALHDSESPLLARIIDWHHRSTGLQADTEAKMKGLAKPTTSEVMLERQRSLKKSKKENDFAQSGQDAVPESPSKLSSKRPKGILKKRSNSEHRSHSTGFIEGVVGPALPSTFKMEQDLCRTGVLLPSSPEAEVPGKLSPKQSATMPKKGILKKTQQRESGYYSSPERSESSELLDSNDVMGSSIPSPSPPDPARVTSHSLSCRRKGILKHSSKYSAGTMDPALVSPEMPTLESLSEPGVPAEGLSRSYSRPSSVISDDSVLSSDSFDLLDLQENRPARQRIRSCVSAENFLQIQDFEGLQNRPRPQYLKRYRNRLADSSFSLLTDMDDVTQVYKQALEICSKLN
Source text: as §1

[9] = biological target: T8, FGR (Homo sapiens, UniProt P09769); details: initial screening
T8 construct: purchased Reaction Biology
T8 sequence (P09769 whole entry): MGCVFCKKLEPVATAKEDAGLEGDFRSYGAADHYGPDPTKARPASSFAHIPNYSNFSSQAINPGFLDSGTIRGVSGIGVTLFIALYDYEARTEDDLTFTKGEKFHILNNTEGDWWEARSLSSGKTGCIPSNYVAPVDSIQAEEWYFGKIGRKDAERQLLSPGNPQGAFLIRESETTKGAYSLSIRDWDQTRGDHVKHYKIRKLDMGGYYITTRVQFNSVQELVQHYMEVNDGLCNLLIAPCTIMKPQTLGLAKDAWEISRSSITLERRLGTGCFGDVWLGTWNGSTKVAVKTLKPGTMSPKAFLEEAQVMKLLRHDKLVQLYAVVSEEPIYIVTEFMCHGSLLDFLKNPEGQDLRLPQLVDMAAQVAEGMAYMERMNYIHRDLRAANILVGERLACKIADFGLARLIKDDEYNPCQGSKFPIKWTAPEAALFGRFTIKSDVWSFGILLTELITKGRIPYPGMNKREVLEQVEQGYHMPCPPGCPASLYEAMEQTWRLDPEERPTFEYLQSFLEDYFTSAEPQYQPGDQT
Source text: as §1

[10] = system: ALK-TFG; details: initial screening
Source text: as §1

[11] = biological target: T9, PIM1 (Homo sapiens, UniProt P11309); details: initial screening
T9 construct: purchased Reaction Biology
Source text: as §1

[12] = biological target: T10, BRSK1 (Homo sapiens, UniProt Q8TDC3); details: initial screening
T10 construct: purchased Reaction Biology
T10 sequence (Q8TDC3 1-778): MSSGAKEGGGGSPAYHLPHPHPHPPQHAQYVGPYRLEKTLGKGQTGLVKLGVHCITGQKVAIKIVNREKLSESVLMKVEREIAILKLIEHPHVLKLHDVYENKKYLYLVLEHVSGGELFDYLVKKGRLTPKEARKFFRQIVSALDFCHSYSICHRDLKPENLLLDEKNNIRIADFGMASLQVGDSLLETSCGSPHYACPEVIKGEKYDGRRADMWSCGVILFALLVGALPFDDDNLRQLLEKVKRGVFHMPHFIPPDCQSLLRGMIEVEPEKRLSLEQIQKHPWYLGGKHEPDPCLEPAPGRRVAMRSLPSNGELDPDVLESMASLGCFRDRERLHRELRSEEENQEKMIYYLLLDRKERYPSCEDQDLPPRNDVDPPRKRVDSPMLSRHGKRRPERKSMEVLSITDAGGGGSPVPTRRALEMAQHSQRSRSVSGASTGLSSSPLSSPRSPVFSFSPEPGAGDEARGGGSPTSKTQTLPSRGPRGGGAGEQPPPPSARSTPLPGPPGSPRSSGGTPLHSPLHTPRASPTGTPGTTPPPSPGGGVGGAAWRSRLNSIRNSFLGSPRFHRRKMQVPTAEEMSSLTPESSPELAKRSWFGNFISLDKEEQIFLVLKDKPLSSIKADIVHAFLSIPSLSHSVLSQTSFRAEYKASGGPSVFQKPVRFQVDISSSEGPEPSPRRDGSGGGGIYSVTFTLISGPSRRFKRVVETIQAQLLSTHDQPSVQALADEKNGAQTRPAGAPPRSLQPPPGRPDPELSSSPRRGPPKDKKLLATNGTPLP
Source text: as §1

[13] = DOH (50 µM), Data 1 and Data 2, read-out: % Enzyme Activity (relative to DMSO controls)

CC1(C)Oc2cc3oc(=O)ccc3cc2C[C@@H]1O [DOH, decursinol]
DOH % Inhibition ([1]; DOH 50 µM): 27.6%
% Enzyme Activity (relative to DMSO controls) ([1]; DOH (50 µM), Data 1 and Data 2): 72.6% and 72.4%
inhibition at 50 µM ([2]; DOH 50 µM): 36.5%
% Enzyme Activity (relative to DMSO controls) ([2]; DOH (50 µM), Data 1 and Data 2): 61.2%
remaining activity at 50 µM [2, 13]: 65.9%
inhibition of kinase activity [3]: no inhibition
inhibition at 50 µM ([4]; DOH 50 µM): 30.3%
% Enzyme Activity (relative to DMSO controls) ([4]; DOH (50 µM), Data 1 and Data 2): 69.4%
remaining activity at 50 µM [4, 13]: 70%
inhibition at 50 µM ([5]; DOH 50 µM): 26.8%
% Enzyme Activity (relative to DMSO controls) ([5]; DOH (50 µM), Data 1 and Data 2): 73.0%
remaining activity at 50 µM [5, 13]: 73.4%
inhibition at 50 µM ([6]; DOH 50 µM): 29%
% Enzyme Activity (relative to DMSO controls) ([6]; DOH (50 µM), Data 1 and Data 2): 70.1%
remaining activity at 50 µM [6, 13]: 72%
inhibition at 50 µM ([7]; DOH 50 µM): 38.5%
% Enzyme Activity (relative to DMSO controls) ([7]; DOH (50 µM), Data 1 and Data 2): 58.4%
remaining activity at 50 µM [7, 13]: 64.5%
inhibition at 50 µM ([8]; DOH 50 µM): 27.4%
% Enzyme Activity (relative to DMSO controls) ([8]; DOH (50 µM), Data 1 and Data 2): 72.5%
remaining activity at 50 µM [8, 13]: 72.6%
inhibition at 50 µM ([9]; DOH 50 µM): 34.8%
% Enzyme Activity (relative to DMSO controls) ([9]; DOH (50 µM), Data 1 and Data 2): 64.8%
remaining activity at 50 µM [9, 13]: 65.6%
DOH % Inhibition ([10]; DOH 50 µM): 27.9%
% Enzyme Activity (relative to DMSO controls) ([10]; DOH (50 µM), Data 1 and Data 2): 75.7% and 68.5%
inhibition at 50 µM ([11]; DOH 50 µM): 38.5%
% Enzyme Activity (relative to DMSO controls) ([11]; DOH (50 µM), Data 1 and Data 2): 60.3%
remaining activity at 50 µM [11, 13]: 62.7%
inhibition at 50 µM ([12]; DOH 50 µM): 29.7%
% Enzyme Activity (relative to DMSO controls) ([12]; DOH (50 µM), Data 1 and Data 2): 69.5%
remaining activity at 50 µM [12, 13]: 71.1%
